From patent publication US7955852B2, “Expansion of renewable stem cell populations” (Gamida Cell Ltd., priority 2002, dated 2011)

System: CD34+ cells
Assay: Ex-vivo expansion of CD34+ cell enriched cord blood cultures with cytokines; cell counts and FACS surface antigen analysis
Format: cell-based, human
Details: for No. of CD34+ cells: treated for one week only; for % 34+ cells / % 34+/38− cells / % 34+/Lin− cells / No. of cells (×10^4): two weeks after seeding, 4 cytokines
Description: Human blood cells were obtained from umbilical cord blood from female patients following full-term, normal delivery (informed consent was obtained).
Samples were collected and processed within 12 hours postpartum. Blood was mixed with 3% Gelatin (Sigma, St. Louis, Mo.), sedimented for 30 minutes to remove most red blood cells. […] The mononuclear cell fraction in the interface layer was collected, washed three times and resuspended in phosphate-buffered saline (PBS) solution (Biological Industries) containing 0.5% bovine serum albumin (BSA, Fraction V; Sigma).
To purify CD34^+ mononuclear cells, the fraction was subjected to two cycles of immuno-magnetic separation using the MiniMACS® or Clinimax® CD34 Progenitor Cell Isolation Kit (Miltenyi Biotec, Auburn, Calif.) as per manufacturer's recommendations.
CD34^+ expressing purified cells above were cultured in 24-well Costar Cell Culture Clusters (Corning Inc., Corning, N.Y.) or culture bags (American Fluoroseal Corp), at a concentration of 10^4 cells/ml in alpha medium (Biological Industries, Beit Haemek, Israel) supplemented with 10% fetal bovine serum (FBS, Biological Industries). The following human recombinant cytokines were added: Thrombopoietin (TPO), interleukin-6 (IL-6), FLT-3 ligand and stem cell factor (SCF), all at final concentrations of 50 ng/ml each, though occasionally IL-3, at a concentration of 20 ng/ml, was added either together or instead of SCF. For non-hematopoietic cell differentiation, FGF, EGF, NGF, VEGF, LIF or Hepatocyte growth factor (HGF) were used to supplement the growth medium, either alone or in various combinations. All cytokines used were purchased from Perpo Tech, Inc. (Rocky Hill, N.J.). The cultures were incubated at 37° C., 5% CO2, in a humidified atmosphere.
At weekly intervals, cell cultures were toped and semi-depopulated and were supplemented with fresh medium, serum and cytokines or supplemented with fresh growth medium, alone. At predetermined time points, cells were harvested, stained with trypan blue, counted, and cell morphology was determined via the use of cytospin (Shandon, UK)-prepared smears stained with May-Grunwald/Giemsa solutions.
CD34^+ purified and whole MNC cultures were prepared and maintained as described above. […] The antagonist was added for a predetermined, limited period, for up to three weeks or continuously during the entire culture period.
Cells were harvested, washed with a PBS solution containing 1% bovine sera albumin (BSA) and 0.1% sodium azide (Sigma), and stained at 4° C. for 60 minutes with fluorescein isothiocyanate or phycoerythrin-conjugated antibodies (all from Immunoquality Products, the Netherlands). The cells were then washed with the same buffer and analyzed by FACS caliber or Facstarplus flow cytometers. Cells were passed at a rate of 1000 cells/second, using saline as the sheath fluid. A 488 nm argon laser beam served as the light source for excitation. Emission of ten thousand cells was measured using logarithmic amplification, and analyzed using CellQuest software. Negative control staining of cells was accomplished with mouse IgG-PE (Dako A/S Glostrup, Denmark) and mouse IgG-FITC (BD Biosciences, Erembodegem, Belgium).
CD34 surface expression on short and long-term cultures initiated either with purified CD34^+ cells or the entire MNC fraction was determined as follows: CD34^+ cells were positively reselected (Miltenyi kit) and counted. Purity was confirmed by subsequent FACS and cell morphology analysis.
Reselected CD34^+ cell subsets were stained for the following combination of antigens: CD34PE/CD38FITC and CD34PE/38, 33, 14, 15, 3, 4, 61, 19 (Lin) FITC. The fraction positive for CD34 and negative for CD38 was defined as CD34^+CD38^−. The fraction positive for CD34 and negative for LIN was defined as CD34^+Lin^− cell fraction.
FACS analysis results are given as percentage values of cells. Absolute numbers of subsets are calculated from the absolute number of CD34^+ cells.

[1] = 2 weeks expansion, re-selected CD34+ cell fraction (FIG. 2)

## CCc1ccc(C2=CC(C)(C)Sc3ccc(C#Cc4ccc(C(=O)O)cc4)cc32)cc1 [AGN 194310, 4-[[4-(4-ethylphenyl)-2,2-dimethyl-(2H)-thiochroman-6-yl]-ethynyl]benzoic acid]
[1]
  increase in CD34+CD38− surface expression: 1000 fold
  increase in CD34+Lin− surface expression: 500 fold
10^−5 M, week 13
  No. of CD34+ cells: 10322
10^−5 M, week 20
  No. of CD34+ cells: 0
10^−5 M
  % 34+ cells: 18.94%
  % 34+/38− cells: 17.14%
  % 34+/Lin− cells: 15.18%
  No. of cells (×10^4): 42 ×10^4
10^−6 M
  % 34+ cells: 19.59%
  % 34+/38− cells: 17.16%
  % 34+/Lin− cells: 11.91%
  No. of cells (×10^4): 52 ×10^4
10^−7 M or 0.41 microgram/liter (FIG. 4)
  time post initial seeding until which cell proliferation was enabled: ≤ 11 weeks
10^−7 M, along with IL-3, 3 and 5 weeks
  activity on ex vivo expansion of stem/progenitor cells: moderate activity
After two weeks in culture, CD34+ re-selected fraction (FIG. 3C)
  increase in CD34+Lin− surface expression: 530 fold
Antagonist for the first three weeks only, then eight weeks without
  increase in CD34+ expression between week three to eleven: 92 fold
Two weeks, FACS (FIGS. 1A-C)
  expression of differentiation associated antigens CD33, CD14, CD15, CD4, CD3, CD19 and CD61: significantly inhibited
  expression of the CD38 antigen: completely abolished
Week 11, antagonist for the first three weeks only
  expansion of CD34+ compartment since the initiation of the cultures: 1621 fold
Week eleven, 9 weeks after termination of antagonist treatment
  increase in CD34+Lin− expression: 16,700 fold
